Measured values: PubChem BioAssay (NCI)
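1) Cells in 96-well plates. 2) Compound, 48 h, 5 concentrations. 3) Linear interpolation between surrounding doses. 4) Unreached endpoint = highest concentration. Definition used: TGI = concentration required for complete inhibition of growth.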

Columns and labels:
Assay in all cases: NCI tumour cell line growth inhibition, 48 h
LXFL 529 NSCLC = test system: LXFL 529 NSCLC
SF-295 CNS = test system: SF-295 CNS
RXF 393 renal = test system: RXF 393 renal
786-0 renal = test system: 786-0 renal
COLO 205 colon = test system: COLO 205 colon
NCI-H226 lung = test system: NCI-H226 lung
HCC-2998 colon = test system: HCC-2998 colon
UACC-257 melanoma = test system: UACC-257 melanoma
UACC-62 melanoma = test system: UACC-62 melanoma
KM12 colon = test system: KM12 colon
SK-OV-3 ovarian = test system: SK-OV-3 ovarian
DLD-1 colon = test system: DLD-1 colon
M14 melanoma = test system: M14 melanoma
EKVX NSCLC = test system: EKVX NSCLC
MALME-3M melanoma = test system: MALME-3M melanoma
NCI-H522 lung = test system: NCI-H522 lung
M19-MEL melanoma = test system: M19-MEL melanoma
SNB-19 CNS = test system: SNB-19 CNS
DMS 273 small cell lung = test system: DMS 273 small cell lung
OVCAR-3 ovarian = test system: OVCAR-3 ovarian
A498 renal = test system: A498 renal
UO-31 renal = test system: UO-31 renal
HCT-15 colon = test system: HCT-15 colon
LOX IMVI melanoma = test system: LOX IMVI melanoma
SNB-75 CNS = test system: SNB-75 CNS
HT29 colon = test system: HT29 colon
U251 CNS = test system: U251 CNS
SK-MEL-28 melanoma = test system: SK-MEL-28 melanoma
DMS 114 small cell lung = test system: DMS 114 small cell lung
SF-268 CNS = test system: SF-268 CNS
HL-60(TB) leukemia = test system: HL-60(TB) leukemia
MOLT-4 leukemia = test system: MOLT-4 leukemia
SK-MEL-2 melanoma = test system: SK-MEL-2 melanoma
A549 NSCLC = test system: A549 NSCLC
SN12C renal = test system: SN12C renal
SF-539 CNS = test system: SF-539 CNS
ACHN renal = test system: ACHN renal
KM20L2 colon = test system: KM20L2 colon
RPMI-8226 leukemia = test system: RPMI-8226 leukemia
OVCAR-5 ovarian = test system: OVCAR-5 ovarian
OVCAR-8 ovarian = test system: OVCAR-8 ovarian
OVCAR-4 ovarian = test system: OVCAR-4 ovarian
HOP-18 NSCLC = test system: HOP-18 NSCLC
NCI-H23 lung = test system: NCI-H23 lung
K-562 leukemia = test system: K-562 leukemia
SK-MEL-5 melanoma = test system: SK-MEL-5 melanoma
SNB-78 CNS = test system: SNB-78 CNS
IGROV1 ovarian = test system: IGROV1 ovarian
HOP-62 NSCLC = test system: HOP-62 NSCLC
TK-10 renal = test system: TK-10 renal
CAKI-1 renal = test system: CAKI-1 renal
SW-620 colon = test system: SW-620 colon
HOP-92 NSCLC = test system: HOP-92 NSCLC
HCT-116 colon = test system: HCT-116 colon
NCI-H460 lung = test system: NCI-H460 lung
CCRF-CEM leukemia = test system: CCRF-CEM leukemia
SR leukemia = test system: SR leukemia

Measured: TGI

CCOc1cccc2sc(N)nc12
not listed: CCRF-CEM leukemia | SR leukemia
> 100 µM: all other assays above

O=C(/C=C/c1ccc[nH]1)c1ccccc1
not listed: HCC-2998 colon | EKVX NSCLC | A498 renal | IGROV1 ovarian
> 100 µM: all other assays above
